Molecular target: T1, human PTH1 receptor (Homo sapiens, UniProt Q03431)
T1 sequence (Q03431 27-593): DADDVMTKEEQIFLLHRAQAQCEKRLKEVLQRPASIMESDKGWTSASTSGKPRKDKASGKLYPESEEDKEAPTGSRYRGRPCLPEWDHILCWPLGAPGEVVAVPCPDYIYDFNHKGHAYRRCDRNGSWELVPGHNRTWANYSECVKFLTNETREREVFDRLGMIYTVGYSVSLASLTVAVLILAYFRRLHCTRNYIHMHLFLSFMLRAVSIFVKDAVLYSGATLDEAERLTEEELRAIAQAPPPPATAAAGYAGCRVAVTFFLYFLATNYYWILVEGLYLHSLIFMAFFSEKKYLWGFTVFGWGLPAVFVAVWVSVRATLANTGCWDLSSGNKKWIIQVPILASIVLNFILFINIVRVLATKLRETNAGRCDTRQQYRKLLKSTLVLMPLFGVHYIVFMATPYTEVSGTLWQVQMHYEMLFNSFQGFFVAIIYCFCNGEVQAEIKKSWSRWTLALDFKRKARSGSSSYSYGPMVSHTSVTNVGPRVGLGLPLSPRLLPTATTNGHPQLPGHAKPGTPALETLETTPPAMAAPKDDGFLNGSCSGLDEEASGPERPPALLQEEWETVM
Test: In vitro cAMP signal activity in HKRK-B7 cells (LLC-PK1 cells overexpressing the human PTH1 receptor)
Format: cell-based
Conditions: HKRK-B7 cells; compound at 1×10^−3 M; cAMP produced as percentage of that produced by hPTH(1-34) at 100 nM

Row | cAMP production activity (%) | Compound
1 | 65 | Cc1cc(C(=O)N2CCOC2=O)cc(C)c1CCS(=O)(=O)N1CCC2(CC1)N=C(C1CCCCC1)NC2=O [Compound 1179, 2-Cyclohexyl-8-{2-[2,6-dimethyl-4-(2-oxo-oxazolidine-3-carbonyl)-phenyl]-ethanesulfonyl}-1,3,8-triaza-spiro[4.5]dec-1-en-4-one]
2 | 73 | CON(C)C(=O)c1cc(C)c(CCS(=O)(=O)N2CCC3(CC2)N=C(C2CCC(C)CC2)NC3=O)c(C)c1 (stereo not drawn) [Compound 1180, N-methoxy-3,5,N-trimethyl-4-{2-[2-(4-methyl-cyclohexyl)-4-oxo-1,3,8-triaza-spiro[4.5]dec-1-ene-8-sulfonyl]-ethyl}-benzamide]
3 | 98 | Cc1cc(C(=O)N2CCCO2)cc(C)c1CCS(=O)(=O)N1CCC2(CC1)N=C(C1CCC(CCC(F)(F)F)CC1)NC2=O (stereo not drawn) [Compound 1181, 8-{2-[4-(isoxazolidine-2-carbonyl)-2,6-dimethyl-phenyl]-ethanesulfonyl}-2-[4-(3,3,3-trifluoro-propyl)-cyclohexyl]-1,3,8-triaza-spiro[4.5]dec-1-en-4-one]
4 | 109 | Cc1cc(C(=O)N2CCCO2)cc(C)c1CCS(=O)(=O)N1CCC2(CC1)N=C(C1CCC(C)CC1)NC2=O (stereo not drawn) [Compound 1182, 8-{2-[4-(isoxazolidine-2-carbonyl)-2,6-dimethyl-phenyl]-ethanesulfonyl}-2-(4-methyl-cyclohexyl)-1,3,8-triaza-spiro[4.5]dec-1-en-4-one]
5 | 90 | Cc1cc(C(=O)N2CCS(=O)(=O)CC2)cc(C)c1CCS(=O)(=O)N1CCC2(CC1)N=C(C1CCC(C)CC1)NC2=O (stereo not drawn) [Compound 1183, 8-{2-[4-(1,1-dioxo-1λ^6-thiomorpholine-4-carbonyl)-2,6-dimethyl-phenyl]-ethanesulfonyl}-2-(4-methyl-cyclohexyl)-1,3,8-triaza-spiro[4.5]dec-1-en-4-one]
6 | 108 | Cc1cc(C(=O)N2CCC(OC[C@H](O)CO)CC2)cc(C)c1CCS(=O)(=O)N1CCC2(CC1)N=C(CCCCCCCCC(F)(F)F)NC2=O [Compound 1184, 8-(2-{4-[4-((R)-2,3-dihydroxy-propoxy)-piperidine-1-carbonyl]-2,6-dimethyl-phenyl}-ethanesulfonyl)-2-(9,9,9-trifluoro-nonyl)-1,3,8-triaza-spiro[4.5]dec-1-en-4-one]
7 | 102 | Cc1cc(C(=O)N2CCC(C)(O)CC2)cc(C)c1/C=C/S(=O)(=O)N1CCC2(CC1)N=C(c1ccc(Cl)c(Cl)c1)NC2=O [Compound 1185, 2-(3,4-Dichloro-phenyl)-8-{(E)-2-[4-(4-hydroxy-4-methyl-piperidine-1-carbonyl)-2,6-dimethyl-phenyl]-ethenesulfonyl}-1,3,8-triaza-spiro[4.5]dec-1-en-4-one]
8 | 110 | Cc1cc(C(=O)N2CCC(C)(O)CC2)cc(C)c1/C=C/S(=O)(=O)N1CCC2(CC1)N=C(c1ccc(F)c(Cl)c1)NC2=O [Compound 1186, 2-(3-chloro-4-fluoro-phenyl)-8-{(E)-2-[4-(4-hydroxy-4-methyl-piperidine-1-carbonyl)-2,6-dimethyl-phenyl]-ethenesulfonyl}-1,3,8-triaza-spiro[4.5]dec-1-en-4-one]
9 | 75 | Cc1cc(C(=O)N2CCC(C)(O)CC2)cc(C)c1/C=C/S(=O)(=O)N1CCC2(CC1)N=C(c1cccc(CC#N)c1)NC2=O [Compound 1187, [3-(8-{(E)-2-[4-(4-hydroxy-4-methyl-piperidine-1-carbonyl)-2,6-dimethyl-phenyl]-ethenesulfonyl}-4-oxo-1,3,8-triaza-spiro[4.5]dec-1-en-2-yl)-phenyl]-acetonitrile]
10 | 99 | Cc1cc(C(=O)N2CCC(C)(O)CC2)cc(C)c1/C=C/S(=O)(=O)N1CCC2(CC1)N=C(c1ccc(C(F)(F)F)c(Cl)c1)NC2=O [Compound 1188, 2-(3-chloro-4-trifluoromethyl-phenyl)-8-{(E)-2-[4-(4-hydroxy-4-methyl-piperidine-1-carbonyl)-2,6-dimethyl-phenyl]-ethenesulfonyl}-1,3,8-triaza-spiro[4.5]dec-1-en-4-one]
11 | 104 | Cc1cc(C(=O)N2CCC(C)(O)CC2)cc(C)c1/C=C/S(=O)(=O)N1CCC2(CC1)N=C(c1ccc(S(F)(F)(F)(F)F)cc1)NC2=O [Compound 1189, 8-{(E)-2-[4-(4-hydroxy-4-methyl-piperidine-1-carbonyl)-2,6-dimethyl-phenyl]-ethenesulfonyl}-2-(4-pentafluorosulfanyl-phenyl)-1,3,8-triaza-spiro[4.5]dec-1-en-4-one]
12 | 108 | Cc1cc(C(=O)N2CCC(C)(O)CC2)cc(C)c1/C=C/S(=O)(=O)N1CCC2(CC1)N=C(c1cccc(S(F)(F)(F)(F)F)c1)NC2=O [Compound 1190, 8-{(E)-2-[4-(4-hydroxy-4-methyl-piperidine-1-carbonyl)-2,6-dimethyl-phenyl]-ethenesulfonyl}-2-(3-pentafluorosulfanyl-phenyl)-1,3,8-triaza-spiro[4.5]dec-1-en-4-one]
13 | 66 | Cc1cc(C(=O)N2CCC(C)(O)CC2)cc(C)c1/C=C/S(=O)(=O)N1CCC2(CC1)N=C(c1ccc(COc3cccc(C(F)(F)F)c3)cc1)NC2=O [Compound 1191, 8-{(E)-2-[4-(4-hydroxy-4-methyl-piperidine-1-carbonyl)-2,6-dimethyl-phenyl]-ethenesulfonyl}-2-[4-(3-trifluoromethyl-phenoxymethyl)-phenyl]-1,3,8-triaza-spiro[4.5]dec-1-en-4-one]
14 | 100 | Cc1cc(C(=O)N2CCC(C)(O)CC2)cc(C)c1/C=C/S(=O)(=O)N1CCC2(CC1)N=C(c1ccc(F)c(C)c1C)NC2=O [Compound 1192, 2-(4-fluoro-2,3-dimethyl-phenyl)-8-{(E)-2-[4-(4-hydroxy-4-methyl-piperidine-1-carbonyl)-2,6-dimethyl-phenyl]-ethenesulfonyl}-1,3,8-triaza-spiro[4.5]dec-1-en-4-one]
15 | 86 | Cc1cc(C2=NC3(CCN(S(=O)(=O)/C=C/c4c(C)cc(C(=O)N5CCC(C)(O)CC5)cc4C)CC3)C(=O)N2)ccc1C(F)(F)F [Compound 1193, 8-{(E)-2-[4-(4-hydroxy-4-methyl-piperidine-1-carbonyl)-2,6-dimethyl-phenyl]-ethenesulfonyl}-2-(3-methyl-4-trifluoromethyl-phenyl)-1,3,8-triaza-spiro[4.5]dec-1-en-4-one]
16 | 62 | Cc1cc(C(=O)N2CCC(C)(O)CC2)cc(C)c1/C=C/S(=O)(=O)N1CCC2(CC1)N=C(c1ccc3c(c1)OCO3)NC2=O [Compound 1194, 2-benzo[1,3]dioxol-5-yl-8-{(E)-2-[4-(4-hydroxy-4-methyl-piperidine-1-carbonyl)-2,6-dimethyl-phenyl]-ethenesulfonyl}-1,3,8-triaza-spiro[4.5]dec-1-en-4-one]
17 | 82 | Cc1cc(C(=O)N2CCC(C)(O)CC2)cc(C)c1/C=C/S(=O)(=O)N1CCC2(CC1)N=C(c1ccc(C(F)(F)C(F)(F)F)cc1)NC2=O [Compound 1195, 8-{(E)-2-[4-(4-hydroxy-4-methyl-piperidine-1-carbonyl)-2,6-dimethyl-phenyl]-ethenesulfonyl}-2-(4-pentafluoroethyl-phenyl)-1,3,8-triaza-spiro[4.5]dec-1-en-4-one]
18 | 76 | Cc1cc(C(=O)N2CCC(C)(O)CC2)cc(C)c1/C=C/S(=O)(=O)N1CCC2(CC1)N=C(c1cccc(C(F)(F)C(F)(F)F)c1)NC2=O [Compound 1196, 8-{(E)-2-[4-(4-hydroxy-4-methyl-piperidine-1-carbonyl)-2,6-dimethyl-phenyl]-ethenesulfonyl}-2-(3-pentafluoroethyl-phenyl)-1,3,8-triaza-spiro[4.5]dec-1-en-4-one]
19 | 74 | Cc1cc(C(=O)N2CCC(C)(O)CC2)cc(C)c1/C=C/S(=O)(=O)N1CCC2(CC1)N=C(c1ccc(OC(C)(C)C(F)(F)F)c(C(F)(F)F)c1)NC2=O [Compound 1197, 8-{(E)-2-[4-(4-hydroxy-4-methyl-piperidine-1-carbonyl)-2,6-dimethyl-phenyl]-ethenesulfonyl}-2-[4-(2,2,2-trifluoro-1,1-dimethyl-ethoxy)-3-trifluoromethyl-phenyl]-1,3,8-triaza-spiro[4.5]dec-1-en-4-one]
20 | 88 | Cc1cc(C(=O)N2CCC(C)(O)CC2)cc(C)c1/C=C/S(=O)(=O)N1CCC2(CC1)N=C(c1ccc(OC(F)(F)F)cc1)NC2=O [Compound 1198, 8-{(E)-2-[4-(4-hydroxy-4-methyl-piperidine-1-carbonyl)-2,6-dimethyl-phenyl]-ethenesulfonyl}-2-(4-trifluoromethoxy-phenyl)-1,3,8-triaza-spiro[4.5]dec-1-en-4-one]
21 | 77 | Cc1cc(C(=O)N2CCC(C)(O)CC2)cc(C)c1/C=C/S(=O)(=O)N1CCC2(CC1)N=C(c1ccc(OCC(F)(F)C(F)F)c(C(F)(F)F)c1)NC2=O [Compound 1199, 8-{(E)-2-[4-(4-hydroxy-4-methyl-piperidine-1-carbonyl)-2,6-dimethyl-phenyl]-ethenesulfonyl}-2-[4-(2,2,3,3-tetrafluoro-propoxy)-3-trifluoromethyl-phenyl]-1,3,8-triaza-spiro[4.5]dec-1-en-4-one]

From US9169254B2, “Spiroimidazolone derivative” (Chugai Seiyaku Kabushiki Kaisha, priority 2009, dated 2015)
